The target of one assay is human plasma kallikrein (Homo sapiens, UniProt P03952). The assay can be described thus: Kallikrein inhibition FLINT assay with quenched AMC peptide substrate Z-Gly-Pro-Arg-AMC (end point EP or kinetic KIN reads). Type of assay: biochemical. In outline:
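Enzyme and compound were preincubated 30 min before adding 50 μM AMC substrate in pH 7.5 Tris/NaCl/CaCl2/BSA/CHAPS buffer. AMC release was read at 30 min endpoint or every 5 min.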

The next assay has as its target Factor XIa (Homo sapiens, UniProt P03951). The assay can be described thus: Factor XIa inhibition FLINT assay with fluorophore-quencher peptide substrate 5Fam-[…]-K5Tamra (end point EP or kinetic KIN reads). Type of assay: biochemical. The settings on record: end point read at 30 min; read-out: FXIa (EP) IC50. The source says:
Factor XIa inhibition assay utilizing a fluorophore-quencher pair peptide substrate A fluorescence intensity (FLINT) based assay was used to monitor inhibition of Factor XIa. The peptide substrate, 5Fam-[…]-K5Tamra (purchased from New England Peptide) was chosen based on the FXI sequence. Conversion of zymogen FXI to its activated form, FXIa, occurs by proteolytic cleavage by […] at two sites, Arg146 and Arg180. The custom peptide used in this assay was based on the Arg146 cleavage site of FXI. The peptide substrate was designed with a fluorophore-quencher pair, where the fluorescence is quenched until FXIa cleaves the 8-mer peptide after the Arg residue.
Test compound(s) were run in an 11-point, 3-fold serial dilution with a final top compound concentration of 100 nM. Final DMSO in assay was 2%. FXIa was preincubated with compound for 30-minutes and then substrate was added to initiate the reaction. The assay was run with either end point (EP) reads at 30 min or kinetic (KIN) reads at 5 min intervals over 30 minutes. […] More specifically, the assay was run as follows: • 100 nL of 0.01 mM test compound was dispensed into black 384-well non-binding Greiner BioOne 784900 plate for 0.1 μM final concentration; • 5 μL of 1× assay buffer was dispensed to column 24 (low control) and 5 μL 2× Factor XIa solution was dispensed to columns 1-23 (column 23 high control); • the plate was centrifuged with a “cover” plate at 500 rpm for 1 min • the plate was pre-incubated for 30 minutes at room temperature with plate covered; • 5 μL of 2×5Fam-[…]-K5Tamra peptide substrate was dispensed into the entire plate, columns 1-24; • the plate was centrifuged with a “cover” plate at 500 rpm for 1 min; • the plate was read monitoring fluorescence intensity on the BMG PHERAStar at room temperature, using fluorescence module 485 nm/520 nm.
Percent inhibition (IC50) curves were generated per compound tested, and data was analyzed using a 4-parameter logistic fit using GeneData Screener. The relative fluorescence unit (RFU) values were normalized to percent inhibition using the following equation: % inhibition=((HC−LC)−(compound−LC)/(HC−LC))*100
An 11-point dose response curve for the test compound(s) was generated using GENDATA to determine IC50 value based on the following equation: Y=Bottom+(Top−Bottom)/(1+10^((log IC50−X)*HillSlope))
Results listed in columns with […] designation were measured using endpoint reads where a single fluorescence reading was measured for each well at a 30 min timepoint.

Setting [1] is: end point read at 30 min, read-out: Kallikrein (EP) IC50.
[2] abbreviates: kinetic reads at 5 min intervals over 30 min, read-out: Kallikrein (KIN) IC50.

Usually pIC50 stands for the IC50 on a negative log10 scale, so that one unit is a factor of ten.

pIC50: −log10 of the molar value. Where two headings read alike, the source gives them in different places.

Factor XIa, sequence (P03951 388-625 limits assumed): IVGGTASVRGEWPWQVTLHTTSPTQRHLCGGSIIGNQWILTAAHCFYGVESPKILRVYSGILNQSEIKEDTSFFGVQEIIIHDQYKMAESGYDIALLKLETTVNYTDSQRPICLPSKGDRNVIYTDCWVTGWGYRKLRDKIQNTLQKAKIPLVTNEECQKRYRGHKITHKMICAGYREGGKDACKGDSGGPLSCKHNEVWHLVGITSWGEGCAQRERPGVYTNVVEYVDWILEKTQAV
Factor XIa, sequence (P03951 19-387 partner limits assumed): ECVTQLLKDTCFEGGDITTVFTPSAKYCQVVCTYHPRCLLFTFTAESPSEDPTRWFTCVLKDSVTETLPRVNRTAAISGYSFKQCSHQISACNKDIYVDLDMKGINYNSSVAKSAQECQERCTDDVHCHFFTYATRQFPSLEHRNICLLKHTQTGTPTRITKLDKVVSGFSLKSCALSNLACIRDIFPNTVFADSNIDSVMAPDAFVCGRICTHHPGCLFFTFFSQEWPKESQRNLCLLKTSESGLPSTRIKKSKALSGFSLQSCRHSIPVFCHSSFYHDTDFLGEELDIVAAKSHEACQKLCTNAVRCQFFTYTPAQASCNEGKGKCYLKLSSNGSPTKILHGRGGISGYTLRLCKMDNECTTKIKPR
human plasma kallikrein, sequence (P03952 391-638 limits assumed): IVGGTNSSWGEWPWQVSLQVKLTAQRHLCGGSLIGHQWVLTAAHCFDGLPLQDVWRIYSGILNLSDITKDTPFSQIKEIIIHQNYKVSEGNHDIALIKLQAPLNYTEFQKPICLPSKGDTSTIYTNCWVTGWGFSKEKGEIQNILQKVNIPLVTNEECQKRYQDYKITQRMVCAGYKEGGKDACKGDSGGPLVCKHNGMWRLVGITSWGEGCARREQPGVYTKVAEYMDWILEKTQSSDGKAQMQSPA
human plasma kallikrein, sequence (P03952 20-390 partner limits assumed): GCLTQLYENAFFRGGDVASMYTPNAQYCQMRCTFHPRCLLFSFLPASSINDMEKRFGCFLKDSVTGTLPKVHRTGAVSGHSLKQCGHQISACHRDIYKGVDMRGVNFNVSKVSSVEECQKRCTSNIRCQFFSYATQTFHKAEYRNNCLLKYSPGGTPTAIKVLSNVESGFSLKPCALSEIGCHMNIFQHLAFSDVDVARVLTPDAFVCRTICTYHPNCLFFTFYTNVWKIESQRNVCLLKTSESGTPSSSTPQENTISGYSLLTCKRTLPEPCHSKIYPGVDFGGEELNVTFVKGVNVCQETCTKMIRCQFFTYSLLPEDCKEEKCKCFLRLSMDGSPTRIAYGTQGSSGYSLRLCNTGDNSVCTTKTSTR

Consider `CN1CCc2cc(-c3cnn(C(CC4CC4)c4ccc(-c5cc(Cl)ccc5-n5cnnn5)c[n+]4[O-])c3)ccc2C1=O` (stereo not shown) [Example P15], for which the results for the pIC50 at human plasma kallikrein (setting [1]) and on Factor XIa were 6.22 and 7.25, respectively.

On to `CC(=O)Nc1ccc(-c2cnn(C(CC3CC3)c3ccc(-c4c(-n5cnnn5)ccc(Cl)c4F)c[n+]3[O-])c2)cc1` (stereo not shown) [Example P23], for which the pIC50 was 7.18 on human plasma kallikrein (setting [1]) and 8.36 on Factor XIa.

As for `COC(=O)Nc1ccc(-c2cnn(C(Cc3ccccc3)c3ccc(-c4cc(Cl)c(F)cc4-n4cnnn4)c[n+]3[O-])c2)cc1` (stereo not shown) [Example P46], the pIC50 at human plasma kallikrein (setting [1]) was 6.47; at Factor XIa it was 7.67.

`COC(=O)Nc1ccc(-c2cnn(C(CC3CC3)c3ccc(-c4cc(Cl)ccc4-n4cc(Cl)nn4)c[n+]3[O-])c2)cc1` (stereo not shown) [Example P14]: the negative logarithm of the IC50 (pIC50) at human plasma kallikrein (setting [1]) was 6.02; on Factor XIa it was 7.03.

`Nc1ccc(-c2cnn(C(Cc3ccccc3)c3ccc(-c4cc(Cl)ccc4-n4cnnn4)c[n+]3[O-])c2)c(Cl)n1` (stereo not shown) [Example P50]: the pIC50 on human plasma kallikrein (setting [1]) is 7.33; on Factor XIa, 8.46.

In the case of `Nc1ccc(-c2cnn(C(CC3CC3)c3ccc(-c4c(-n5cnnn5)ccc(Cl)c4F)c[n+]3[O-])c2)c[n+]1[O-]` (stereo not shown) [Example P25], the values for the negative logarithm of the IC50 (pIC50) on human plasma kallikrein (setting [1]) and on Factor XIa were 6.13 and 8.05, respectively.

As to `O=C(O)c1ccc(-c2cnn(C(CC3CC3)c3ccc(-c4c(-n5cnnn5)ccc(Cl)c4F)c[n+]3[O-])c2)cc1` (stereo not shown) [Example P9], the pIC50 was 7.43 on human plasma kallikrein (setting [1]) and 9.54 on Factor XIa.

On to `[O-][n+]1cc(-c2cc(Cl)ccc2-n2cnnn2)ccc1C(Cc1ccc(F)cc1)n1cc(-c2ccc(F)cc2)cn1` (stereo not shown) [Example P22], for which the negative-log IC50 (pIC50) was 7.35 at human plasma kallikrein (setting [1]) and 8.00 at Factor XIa.

In the case of `Nc1ccc(-c2cnn(C(CC3CC3)c3ccc(-c4cc(Cl)ccc4-n4cnnn4)c[n+]3[O-])c2)c(Cl)n1` (single isomer, unassigned) [Example P49], the figures for the pIC50 on human plasma kallikrein (setting [1]) and on Factor XIa were 7.10 and 8.47, respectively.

Consider `CS(=O)(=O)NC(=O)c1ccc(-c2cnn(C(CC3CC3)c3ccc(-c4cc(Cl)ccc4-n4cnnn4)c[n+]3[O-])c2)cc1` (stereo not shown) [Example P18], for which the pIC50 was 6.40 on human plasma kallikrein (setting [1]) and 8.51 at Factor XIa.

Take `O=C(O)c1ccc(-c2cnn(C(Cc3ccc(F)cc3)c3ccc(-c4cc(Cl)ccc4-n4cnnn4)c[n+]3[O-])c2)cc1` (stereo not shown) [Example P7]: the pIC50 is 8.39 at human plasma kallikrein (setting [1]), 8.89 at human plasma kallikrein (setting [2]) and 9.10 on Factor XIa.

Turning to `COC(=O)Nc1ccc(-c2cnn(C(CC3CC3)c3c(F)cc(-c4c(-n5cnnn5)ccc(Cl)c4F)c[n+]3[O-])c2)cc1` (stereo not shown) [Example P30], the pIC50 at human plasma kallikrein (setting [1]) was 7.24; at Factor XIa, 8.48.

Turning to `CN1Cc2cc(-c3cnn(C(CC4CC4)c4ccc(-c5cc(Cl)ccc5-n5cnnn5)c[n+]4[O-])c3)ccc2C1=O` (stereo not shown) [Example P12], the negative logarithm of the IC50 (pIC50) was 6.43 on human plasma kallikrein (setting [1]) and 7.14 at Factor XIa.

`COC(=O)Nc1ccc(-c2cnn(C(Cc3ccc(F)cc3)c3ccc(-c4cc(Cl)ccc4C#N)c[n+]3[O-])c2)cc1` (stereo not shown) [Example Q1]: the pIC50 at human plasma kallikrein (setting [1]) was 6.45; on Factor XIa it was 6.21.

Regarding `O=C(O)c1cccc(-c2cnn(C(CC3CC3)c3ccc(-c4cc(Cl)ccc4-n4cnnn4)c[n+]3[O-])c2)c1` (stereo not shown) [Example P3], the results for the negative-log IC50 (pIC50) on human plasma kallikrein (setting [1]) and on Factor XIa were 7.01 and 8.03, respectively.

Regarding `Nc1ccc(-c2cnn(C(CC3CC3)c3ccc(-c4cc(Cl)ccc4-n4cnnn4)c[n+]3[O-])c2)c(Cl)n1` (stereo not shown) [Example P19], the results for the negative logarithm of the IC50 (pIC50) on human plasma kallikrein (setting [1]) and at Factor XIa were 6.87 and 8.47, respectively.

Regarding `Nc1ccc(-c2cnn(C(CC3CC3)c3ccc(-c4c(-n5cnnn5)ccc(Cl)c4F)c[n+]3[O-])c2)cn1` (stereo not shown) [Example P24], the negative-log IC50 (pIC50) was 6.94 on human plasma kallikrein (setting [1]) and 8.31 on Factor XIa.

Consider `O=C(O)c1ccc(-c2cnn(C(CC3CC3)c3ccc(-c4cc(Cl)ccc4-n4cc(Cl)nn4)c[n+]3[O-])c2)cc1` (stereo not shown) [Example P4], for which the negative-log IC50 (pIC50) on human plasma kallikrein (setting [1]) is 6.29; on Factor XIa it was 8.00.

In the case of `NC(=O)C1CC1CC(c1ccc(-c2c(-n3cnnn3)ccc(Cl)c2F)c[n+]1[O-])n1cc(-c2ccc(N)nc2F)cn1` (single isomer, unassigned) [Example P338], the pIC50 on human plasma kallikrein (setting [2]) is 7.13.

Turning to `Nc1ccc(-c2cnn(C(Cn3cc(F)cn3)c3ccc(-c4c(-n5cnnn5)ccc(Cl)c4F)c[n+]3[O-])c2)c(F)n1` (single isomer, unassigned) [Example P416], the negative-log IC50 (pIC50) at human plasma kallikrein (setting [2]) is 8.48.

For `[O-][n+]1cc(-c2c(-n3cnnn3)ccc(Cl)c2F)ccc1[C@H](Cc1cn(C(F)F)nn1)n1cc(-c2ccnc(C(F)(F)F)c2)cn1` [Example P746], the negative logarithm of the IC50 (pIC50) on human plasma kallikrein (setting [2]) was 6.23.

In the case of `[O-][n+]1cc(-c2c(C(F)F)ccc(Cl)c2F)ccc1C(Cn1cc(F)cn1)n1cc(-c2ccnc(C(F)(F)F)c2)cn1` (single isomer, unassigned) [Example Q23], the pIC50 on human plasma kallikrein (setting [2]) is 7.09.

On to `NC(=O)c1ccc(-c2cnn(C(Cc3ncco3)c3ccc(-c4c(-n5cc(C(F)(F)F)nn5)ccc(Cl)c4F)c[n+]3[O-])c2)cc1F` (stereo not shown) [Example P909], for which the negative-log IC50 (pIC50) at human plasma kallikrein (setting [2]) was 8.26.

Take `COc1cc(C(CC2CC2)n2cc(-c3ccc(N)nc3F)cn2)[n+]([O-])cc1-c1c(-c2cnco2)ccc(Cl)c1F` (stereo not shown) [Example P182]: on human plasma kallikrein (setting [2]), the negative logarithm of the IC50 (pIC50) was 7.26.

As to `Cn1ncnc1-c1cnn([C@H](Cc2ccn(C(F)F)n2)c2ccc(-c3c(-n4cc(Cl)nn4)ccc(Cl)c3F)c[n+]2[O-])c1` [Example P794], the pIC50 at human plasma kallikrein (setting [2]) was 7.25.

Regarding `O=C(c1cnn(CC(c2ccc(-c3c(-n4cnnn4)ccc(Cl)c3F)c[n+]2[O-])n2cc(-c3ccncc3)cn2)c1)N1CCCCC1` (stereo not shown) [Example P291], the negative-log IC50 (pIC50) on human plasma kallikrein (setting [2]) is 7.90.

For the molecule `O=C(C1CC1CC(c1ccc(-c2c(-n3cnnn3)ccc(Cl)c2F)c[n+]1[O-])n1cc(-c2ccncc2)cn1)N1CCCCC1` (stereo not shown) [Example P252], the pIC50 on human plasma kallikrein (setting [2]) was 6.21.

As for `CC(C)n1ccc(C[C@@H](c2ccc(-c3c(-n4cnnn4)ccc(Cl)c3F)c[n+]2[O-])n2cc(-c3ccnc(C(F)(F)F)c3)cn2)n1` [Example P651], on human plasma kallikrein (setting [2]), the pIC50 is 6.51.

`NC(=O)c1ccc(-c2cnn(C(Cc3ccn(C(F)F)n3)c3ccc(-c4c(-n5cc(C(F)(F)F)nn5)ccc(Cl)c4F)c[n+]3[O-])c2)cc1F` (single isomer, unassigned) [Example P891]: the pIC50 on human plasma kallikrein (setting [2]) is 6.27.

In the case of `[O-][n+]1cc(-c2c(-n3cnnn3)ccc(Cl)c2F)ccc1C(Cn1cc2c(n1)COCC2)n1cc(-c2ccnc(C(F)(F)F)c2)cn1` (stereo not shown) [Example P465], the pIC50 at human plasma kallikrein (setting [2]) is 7.12.

As for `N#Cc1cc(-c2cnn(C(Cn3cc(F)cn3)c3ccc(-c4c(-n5cnnn5)ccc(Cl)c4F)c[n+]3[O-])c2)ccn1` (single isomer, unassigned) [Example P453], the pIC50 on human plasma kallikrein (setting [2]) is 6.88.

`[O-][n+]1cc(-c2c(-n3cnnn3)ccc(Cl)c2F)ccc1C(Cn1cc(F)cn1)n1cc(-c2ccnn2C(F)F)cn1` (single isomer, unassigned) [Example P644]: on human plasma kallikrein (setting [2]), the pIC50 is 7.84.

As for `[O-][n+]1cc(-c2c(-n3cnnn3)ccc(Cl)c2F)ccc1C(Cc1ccc(F)cc1)n1cc(-c2cnn(C(F)F)n2)cn1` (single isomer, unassigned) [Example P598], the negative logarithm of the IC50 (pIC50) on human plasma kallikrein (setting [2]) is 6.06.

Regarding `[O-][n+]1cc(-c2c(C(F)F)ccc(Cl)c2F)ccc1C(Cn1cc(F)cn1)n1cc(-c2ccnc(C(F)(F)F)c2)cn1` (single isomer, unassigned) [Example Q22], at human plasma kallikrein (setting [2]), the pIC50 was 6.09.

`[O-][n+]1cc(-c2c(-n3cnnn3)ccc(Cl)c2F)ccc1C(CC1CC1)n1cc(-c2cnco2)cn1` (stereo not shown) [Example P455]: the negative logarithm of the IC50 (pIC50) on human plasma kallikrein (setting [2]) is 6.30.

Turning to `Cn1ncnc1-c1cnn(C(Cc2ncco2)c2ccc(-c3c(-n4cc(C(F)(F)F)nn4)ccc(Cl)c3F)c[n+]2[O-])c1` (stereo not shown) [Example P925], at human plasma kallikrein (setting [2]), the pIC50 is 6.73.

On to `O=C(O)c1ccc(-c2cnn(C(CC3CC3C(=O)N3CCC(c4ccccc4)C3)c3ccc(-c4cc(Cl)ccc4-n4cnnn4)c[n+]3[O-])c2)cc1` (single isomer, unassigned) [Example P99], for which, at human plasma kallikrein (setting [2]), the pIC50 was 5.62.

In the case of `[O-][n+]1cc(-c2c(-n3cnnn3)ccc(Cl)c2F)ccc1C(Cn1cc(F)cn1)n1cc(-c2ccnc(C(F)(F)F)c2)cn1` (stereo not shown) [Example P332], on human plasma kallikrein (setting [2]), the negative-log IC50 (pIC50) was 7.23.

As to `[O-][n+]1cc(-c2c(-n3cnnn3)ccc(Cl)c2F)ccc1C(Cn1cccn1)n1cc(-c2ccnc(C(F)(F)F)c2)cn1` (single isomer, unassigned) [Example P513], the negative logarithm of the IC50 (pIC50) at human plasma kallikrein (setting [2]) is 8.28.

Values taken from US11814364B2, “Pyridine N-oxide derivatives useful as factor XIa inhibitors” (Janssen Pharmaceutica NV, priority 2021, dated 2023).
